Results as given in patent publication US20130123271A1, “HETEROCYCLIC COMPOUNDS, THEIR PREPARATION AND THERAPEUTIC APPLICATION” (FOVEA PHARMACEUTICALS, priority 2010, published 2013).
Values after ≈ are worked out from the molar mass of the structure shown.

Columns and labels:
[1] = Solubility in HPbCD 7% pH 5; assay type: physicochemical; settings: HPbCD 7% solution, aqueous with cosolvent or surfactant or cyclodextrin, read-out: Solubility HPbCD 7% pH 5 (mg/ml) measured
Colour of the compound = assay type: physicochemical; settings: powder
h Src = h Src (Homo sapiens, UniProt P12931); assay: LC3000 Src assay (off-chip incubation mobility-shift kinase assay, Caliper LabChip); assay type: biochemical; settings: ATP at KM apparent
Protocol: The screening and profiling experiments described here were performed using Caliper Life Sciences' proprietary LabChip™ technology. Caliper LC3000 and EZ Reader II instruments are widely used throughout the drug discovery process for assay development, primary screening, selectivity screening, generation of Structure-Activity Relationships (SARs) and Mechanism of Action (MOA) studies. The LabChip™ technology is particularly well suited for enzymatic ‘targets’ such as kinases, proteases, phosphatases, histone deacetylases (HDAC), phosphodiesterases (PDE), and acyl-transferases. The key benefit of the technology is the separation and direct measurement of substrates and products, which allows for higher signal-to-noise ratios and fewer false positive/negative results. This direct measurement also allows for the identification and elimination of enzymatic activities that are not associated with the kinase reaction of interest.
The off-chip incubation mobility-shift kinase assay uses a microfluidic chip to measure the conversion of a fluorescent peptide substrate to a phosphorylated product. The reaction mixture, from a microtiter plate well, is introduced through a capillary sipper onto the chip, where the nonphosphorylated substrate and phosphorylated product are separated by electrophoresis and detected via laser-induced fluorescence. […] The phosphorylated product migrates through the chip faster than the non-phosphorylated substrate, and signals from the two forms of the peptide appear as distinct peaks. Caliper's data analysis software (HTSWA) determines peak heights, from which the ratio of product to the peak sum P/(P+S) and percent (%) conversion is calculated. This value is used to compare compound wells to control wells present on the plate, and thereby determine the % inhibition values for the compound. The formula used to calculate % inhibition is as follows, where C100% is the average % conversion of the 100% activity wells and C0% is the average % conversion of the 0% activity wells:
(1-(%conversionofsample—C0%)/(C100%−C0%))*100
Compounds were dissolved in 100% DMSO and diluted to 25× the final desired screening concentration. Serial dilutions were performed to obtain the concentrations specified for particular studies. One μl of each concentration was transferred, in duplicate, to a 384-well Greiner microtiter plate. Generally, 12 μL of enzyme buffer containing purified kinase (various suppliers), 100 mM HEPES, pH 7.5, 1 mM DTT (Calbiochem, 2333153), 10 mM MgCl2 (Sigma, M-1028) or 10 mM MnCl2 (Sigma, M-1787) (assay specific), and 0.002% Brij-35 (Sigma, B4184) was added to each well. Compound and enzyme were allowed to pre-incubate for 15 minutes. 12 μL of peptide/ATP buffer containing 100 mM HEPES, pH 7.5, 1.5 μM fluorescein-labeled peptide (specific to kinase of interest), ATP (at KM apparent, Sigma, A9187), and 0.002% Brij-35 was then added to each well to initiate the reaction. Generally, reactions were incubated for 1-1.5 hours at room temperature to obtain adequate (15-40%) conversion of peptide to phosphorylated product in the linear range of the reaction. Reactions were terminated with the addition of 45 μL of Stop Buffer (containing 20 mM EDTA). Plates were then read on the LabChip 3000 using a 12-sipper LabChip. % conversion values and % inhibition values were obtained as described and IC50 curves of compounds were generated using Graphpad Prism Version 4 or 5.01. A nonlinear curve fit using the sigmoidal dose response—variable slope fit was used to graph IC50 curves and determine IC50 values and hillslopes.

[2] = test system: choroidal neovascularisation; assay: Rat model of laser-induced choroidal neovascularization (CNV); assay type: in vivo, rat (Brown Norway); settings: topical solution 6 mg/mL (10 μL) two times daily, 14 days after laser induction
Protocol: We investigated the efficacy of topical administration of compound 25 of the invention in reducing choroidal neovascularisation in the rat (Brown Norway, 8 weeks of age).
On day 1, CNV was performed by laser photocoagulation-induced rupture of Bruch's membrane as previously described (Edelman and Casto 2000). An Argon green laser irradiation was delivered through the slit lamp for induce photocoagulation. In each eye, 6-7 focal laser spots were applied concentrically approximately two optic discs from the center. Immediately afterwards, rats were treated with topical solution 6 mg/mL (10 μL) two times daily until sacrifice. 14 days after laser induction of CNV blood vessels were visualized on retinal pigment epithelium-choroid-sclera flat-mount by immunostaining with isolectin B4.
Assessment of CNV response to treatment was performed after capture and area measurement of immunostained vessels representing CNV at the site of laser burn.
Pixel area of vascular budding was traced by 2 trained masked investigators and converted to μm^2.

[3] = Ussing chamber permeation study through rabbit cornea; assay type: in vitro ADME; settings: 37° C., 0.5 cm2 rabbit cornea
Protocol: Ussing chambers were used for the permeation study each day of experiment.
3 mL of solution were placed in donor side of Ussing chambers and 3 mL of Ringer solution were in receiver side. Freshly removed rabbit corneal tissue were placed between the two half chambers.
Temperature was maintained at 37° C. during all the flux study and oxygenation was provided by a continuous perfusion of carbogen (oxygen/carbonic acid) (95/5),
Rabbits were euthanized and the 6 corneas were removed and used immediately. 500 μL of receptor side liquid were removed from Ussing chambers and replaced by fresh buffer. The samples were analyzed immediately (less than 10 hours after collection).
100 μL of donor side liquid were removed from Ussing chambers and not replaced. The samples were diluted immediately (less than 1 hour) after collection and analyzed less than 10 hours after dilution. Analysis was performed on HPLC (Stationary phase: C18 (Particle size: 3 μm Length: 5 cm, using a gradient from 5 to 95% ACN/water (0.1% formic acid)).
At the end of the sampling period, all corneas were discarded.

Src/Lyn (h) = Src/Lyn (h) (Homo sapiens, UniProt P12931); assay: In vitro potency Src/Lyn (h), Table 2; assay type: biochemical
Src/Lyn (h), sequence (P12931 whole entry): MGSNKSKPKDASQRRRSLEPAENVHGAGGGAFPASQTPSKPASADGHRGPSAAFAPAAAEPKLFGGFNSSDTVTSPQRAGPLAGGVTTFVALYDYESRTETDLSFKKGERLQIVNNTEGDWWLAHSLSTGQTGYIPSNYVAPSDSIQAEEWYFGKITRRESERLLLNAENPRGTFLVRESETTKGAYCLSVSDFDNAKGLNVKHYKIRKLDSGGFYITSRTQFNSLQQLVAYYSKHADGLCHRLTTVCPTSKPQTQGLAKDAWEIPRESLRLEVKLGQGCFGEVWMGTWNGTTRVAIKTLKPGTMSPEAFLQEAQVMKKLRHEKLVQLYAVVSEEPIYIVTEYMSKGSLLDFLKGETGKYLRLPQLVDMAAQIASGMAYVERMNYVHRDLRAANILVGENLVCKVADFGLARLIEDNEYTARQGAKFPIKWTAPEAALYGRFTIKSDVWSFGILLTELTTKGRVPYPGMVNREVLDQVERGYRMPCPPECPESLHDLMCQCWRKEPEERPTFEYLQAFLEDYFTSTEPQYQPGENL

h Src, sequence (P12931 whole entry): as above

| SMILES | solubility [1] | Colour (Colour of the compound) | IC50 (h Src) | reduction of CNV compared to control [2] | Flux between 2 and 4 hours through 0.5 cm2 of rabbit cornea (μg/h/cm2) [3] | IC50 (Src/Lyn (h)) |
| --- | --- | --- | --- | --- | --- | --- |
| Oc1ccc(Cl)c(-c2ccc3nc(Nc4ccc(OCCN5CCCC5)nc4)nn3c2)c1 [Compound 25, 4-Chloro-3-{2-[6-(2-pyrrolidin-1-yl-ethoxy)-pyridin-3-ylamino]-[1,2,4]triazolo[1,5-a]pyridin-6-yl}-phenol] | 6.5 mg/mL (≈ 14.4 mM) | White | 23 nM | 15% | 14 μg/h/cm2 | 23 nM |
| Cc1nc(Nc2nc3ccc(-c4cc(O)ccc4Cl)cn3n2)cc(N2CCN(CCO)CC2)n1 [Compound 27, 4-Chloro-3-(2-{6-[4-(2-hydroxy-ethyl)-piperazin-1-yl]-2-methyl-pyrimidin-4-ylamino}-[1,2,4]triazolo[1,5-a]pyridin-6-yl)-phenol] | > 10 mg/mL | White | 83 nM |  | 19 μg/h/cm2 | 83 nM |
| Cc1cc(Nc2nc3ccc(-c4cc(O)ccc4Cl)cn3n2)cc(N2CCN(CCO)CC2)c1 [Compound 28, 4-Chloro-3-(2-{3-[4-(2-hydroxy-ethyl)-piperazin-1-yl]-5-methyl-phenylamino}-[1,2,4]triazolo[1,5-a]pyridin-6-yl)-phenol] | 7.5 mg/mL (≈ 15.7 mM) | White | 3 nM |  | 8 μg/h/cm2 | 3 nM |
| OCc1cc(Nc2ncc3cc(-c4cc(O)ccc4Cl)ccc3n2)ccn1 [Compound 43, 4-Chloro-3-[2-(2-hydroxymethyl-pyridin-4-ylamino)-quinazolin-6-yl]-phenol] | 1.5 mg/mL (≈ 3.96 mM) | Pale | 0.7 nM |  | 6 μg/h/cm2 | 0.7 nM |
| OCCn1cnc2cc(Nc3ncc4cc(-c5cc(O)ccc5Cl)ccc4n3)ccc21 [Compound 45, 4-Chloro-3-{2-[1-(2-hydroxy-ethyl)-1H-benzoimidazol-5-ylamino]-quinazolin-6-yl}-phenol] | 2.3 mg/mL (≈ 5.33 mM) | Pale | 0.5 nM |  | 8 μg/h/cm2 | 1 nM |
| Cc1cc(Nc2ncc3cc(-c4cc(O)ccc4Cl)ccc3n2)cc(N2CCN(CCO)CC2)c1 [Compound 46, 4-Chloro-3-(2-{3-[4-(2-hydroxy-ethyl)-piperazin-1-yl]-5-methyl-phenylamino}-quinazolin-6-yl)-phenol] | > 10 mg/mL | Pale | 0.8 nM |  | 13 μg/h/cm2 | 0.8 nM |
| OCc1cc(CO)cc(Nc2nc3ccc(-c4cc(O)ccc4Cl)cn3n2)c1 [compound 5, 3-[2-(3,5-Bis-hydroxymethyl-phenylamino)-[1,2,4]triazolo[1,5-a]pyridin-6-yl]-4-chloro-phenol] | 1.3 mg/mL (≈ 3.28 mM) | White | 5 nM |  | 13 μg/h/cm2 | 5 nM |
| OCCN1CCN(c2ccc(Nc3nc4ccc(-c5cc(O)ccc5Cl)cn4n3)cn2)CC1 [compound 10, 4-Chloro-3-(2-{6-[4-(2-hydroxy-ethyl)-piperazin-1-yl]-pyridin-3-ylamino}-[1,2,4]triazolo[1,5-a]pyridin-6-yl)-phenol] | 5.69 mg/mL (≈ 12.2 mM) | White | 14 nM |  | 30 μg/h/cm2 | 14 nM |
| OCc1cc(Nc2nc3ccc(-c4cc(O)ccc4Cl)cn3n2)ccn1 [compound 13, 4-Chloro-3-[2-(2-hydroxymethyl-pyridin-4-ylamino)-[1,2,4]triazolo[1,5-a]pyridin-6-yl]-phenol] | 2.38 mg/mL (≈ 6.47 mM) | White | 27 nM |  | 13 μg/h/cm2 | 27 nM |
| OCc1ccc(Nc2nc3ccc(-c4cc(O)ccc4Cl)cn3n2)cn1 [compound 14, 4-Chloro-3-[2-(6-hydroxymethyl-pyridin-3-ylamino)-[1,2,4]triazolo[1,5-a]pyridin-6-yl]-phenol] |  |  | 47 nM |  |  |  |
| OCc1cc(CO)cc(Nc2ncc3cc(-c4cc(O)ccc4Cl)ccc3n2)c1 [compound 16, 3-[2-(3,5-Bis-hydroxymethyl-phenylamino)-quinazolin-6-yl]-4-chloro-phenol] | 1.2 mg/mL (≈ 2.94 mM) | Pale | 0.1 nM |  | 17 μg/h/cm2 | < 1 nM |
